Assay results from patent US8759535B2, “Substituted fused imidazole derivatives, pharmaceutical compositions, and methods of use thereof” (High Point Pharmaceuticals, LLC, priority 2010, dated 2014).
Structures can show the parent of a compound that is named as a salt.

System: HMOX1
Test: HMOX1 Protein Assay (immunostaining of HO-1 in NHLF cells, GE InCell 1000)
Assay type: cell-based
Details: Homo sapiens, fold change above DMSO treated cells, 16 h; for fold induction at 5 µM: 5 μM compound; for fold induction at 3 µM: 3 μM compound (asterisk)
Outline: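 Fold induction of HO-1 over vehicle, normally at 5 μM compound (asterisk marks 3 μM), in 0.8% DMSO medium. Normal human lung fibroblasts were treated 16 h, then paraformaldehyde-fixed, anti-HO-1/Alexa 488 stained with Hoechst, and read by high-content imaging.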

| SMILES | fold induction at 5 µM | fold induction at 3 µM |
| --- | --- | --- |
| Cn1c(Nc2nc3ccc(OC(F)(F)F)cc3s2)nc2cc(C(=O)NC3CCS(=O)(=O)C3)ccc21 (stereo not drawn) [Example 121, 1-Methyl-2-(6-trifluoromethoxy-benzothiazol-2-ylamino)-1H-benzimidazole-5-carboxylic acid (1,1-dioxo-tetrahydro-1λ^6-thiophen-3-yl)-amide] | 29.6 |  |
| CN(C)CC(=O)NCCNC(=O)c1ccc2c(c1)nc(Nc1nc3ccc(OC(F)(F)F)cc3s1)n2C [Example 323, 1-Methyl-2-(6-trifluoromethoxy-benzothiazol-2-ylamino)-1H-benzoimidazole-5-carboxylic acid [2-(2-dimethylamino-acetylamino)-ethyl]-amide] | 113 |  |
| Cn1c(Nc2nc3ccc(OC(F)(F)F)cc3s2)nc2cc(C(=O)NCCC(=O)O)ccc21 [Example 98, 3-{[2-(6-Trifluoromethoxy-benzothiazol-2-ylamino)-1-methyl-1H-benzimidazole-5-carbonyl]-amino}-propionic acid] | 13.8 |  |
| COCCn1c(Nc2nc3ccc(Cl)cc3s2)nc2cc(C(=O)NCC3CCN(CCO)CC3)ccc21 [Example 304, 2-(6-Chloro-benzothiazol-2-ylamino)-1-(2-methoxy-ethyl)-1H-benzoimidazole-5-carboxylic acid [1-(2-hydroxy-ethyl)-piperidin-4-ylmethyl]-amide] | 24.7 |  |
| Cn1c(Nc2nc3ccc(Cl)cc3s2)nc2cc(C(=O)NC[C@H]3CC[C@H](CO)CC3)ccc21 [Example 255, 2-(6-Chloro-benzothiazol-2-ylamino)-1-methyl-1H-benzoimidazole-5-carboxylic acid (trans-4-hydroxymethyl-cyclohexylmethyl)-amide] | 49.3 |  |
| Cn1c(Nc2nc3ccc(OC(F)(F)F)cc3s2)nc2cc(C(=O)O)ccc21 [Example 3, 1-Methyl-2-(6-trifluoromethoxy-benzothiazol-2-ylamino)-1H-benzoimidazole-5-carboxylic acid] | 12.5 |  |
| C[C@@H](O)CN1CC[C@@H](NC(=O)c2ccc3c(c2)nc(Nc2nc4ccc(Cl)cc4s2)n3C)C1 [Example 296, 2-(6-Chloro-benzothiazol-2-ylamino)-1-methyl-1H-benzoimidazole-5-carboxylic acid [(R)-1-((R)-2-hydroxy-propyl)-pyrrolidin-3-yl]-amide] |  | 34.6 |
| Cn1c(Nc2nc3ccc(OC(F)(F)F)cc3s2)nc2cc(C(=O)NCCN3CCOCC3)ccc21 [Example 43, 1-Methyl-2-(6-trifluoromethoxy-benzothiazol-2-ylamino)-1H-benzoimidazole-5-carboxylic acid (2-morpholin-4-yl-ethyl)-amide] | 29.6 |  |
| Cn1c(Nc2nc3ccc(OC(F)(F)F)cc3s2)nc2cc(C(=O)NCCO)ccc21 [Example 10, 1-Methyl-2-(6-trifluoromethoxy-benzothiazol-2-ylamino)-1H-benzoimidazole-5-carboxylic acid (2-hydroxy-ethyl)-amide] | 19.9 |  |
| Cn1c(Nc2nc3ccc(OC(F)(F)F)cc3s2)nc2cc(C(=O)O)c(F)cc21 [Example 41, 6-Fluoro-1-methyl-2-(6-trifluoromethoxy-benzothiazol-2-ylamino)-1H-benzoimidazole-5-carboxylic acid] | 33.3 |  |
| COCC1CCN(C(=O)CNC(=O)c2ccc3c(c2)nc(Nc2nc4ccc(OC(F)(F)F)cc4s2)n3C)CC1 [Example 447, 1-Methyl-2-(6-trifluoromethoxy-benzothiazol-2-ylamino)-1H-benzoimidazole-5-carboxylic acid [2-(4-methoxymethyl-piperidin-1-yl)-2-oxo-ethyl]-amide] | 58.4 |  |
| CCOCCNC(=O)c1cnc2c(c1)nc(Nc1nc3ccc(OC(F)(F)F)cc3s1)n2C [Example 75, 3-Methyl-2-(6-trifluoromethoxy-benzothiazol-2-ylamino)-3H-imidazo[-4,5-b]pyridine-6-carboxylic acid (2-ethoxy-ethyl)-amide] | 29 |  |
| Cn1c(Nc2nc3ccc(OC(F)(F)F)cc3s2)nc2cc(C(=O)NCCN3CCCC3=O)ccc21 [Example 329, 1-Methyl-2-(6-trifluoromethoxy-benzothiazol-2-ylamino)-1H-benzoimidazole-5-carboxylic acid [2-(2-oxo-pyrrolidin-1-yl)-ethyl]-amide] | 52.2 |  |
| Cn1c(Nc2nc3ccc(OC(F)(F)F)cc3s2)nc2cc(C(=O)NCCCCN)ccc21 [Example 346, 1-Methyl-2-(6-trifluoromethoxy-benzothiazol-2-ylamino)-1H-benzoimidazole-5-carboxylic acid (4-amino-butyl)-amide hydrochloride] |  | 12.9 |
| CN(C)CC1CCN(C(=O)CNC(=O)c2ccc3c(c2)nc(Nc2nc4ccc(OC(F)(F)F)cc4s2)n3C)CC1 [Example 458, 1-Methyl-2-(6-trifluoromethoxy-benzothiazol-2-ylamino)-1H-benzoimidazole-5-carboxylic acid [2-(4-dimethylaminomethyl-piperidin-1-yl)-2-oxo-ethyl]-amide] | 68.5 |  |
| CCOC(C)CNC(=O)c1ccc2c(c1)nc(Nc1nc3ccc(OC(F)(F)F)cc3s1)n2C (stereo not drawn) [Example 54, 1-Methyl-2-(6-trifluoromethoxy-benzothiazol-2-ylamino)-1H-benzoimidazole-5-carboxylic acid (2-ethoxy-propyl)-amide] | 18.5 |  |
| CN(C)C(=O)CCCNC(=O)c1ccc2c(c1)nc(Nc1nc3ccc(Cl)cc3s1)n2C [Example 376, 2-(6-Chloro-benzothiazol-2-ylamino)-1-methyl-1H-benzoimidazole-5-carboxylic acid (3-dimethylcarbamoyl-propyl)-amide] | 19.1 |  |
| COCCn1c(Nc2nc3ccc(OC(F)(F)F)cc3s2)nc2cc(C(=O)NCC(=O)N3CCN(C)CC3)ccc21 [Example 189, 1-(2-Methoxy-ethyl)-2-(6-trifluoromethoxy-benzothiazol-2-ylamino)-1H-benzoimidazole-5-carboxylic acid [2-(4-methyl-piperazin-1-yl)-2-oxo-ethyl]-amide] | 24.6 |  |
| Cn1c(Nc2nc3ccc(C(F)(F)F)cc3s2)nc2cc(C(=O)NCCC(=O)N3CCOCC3)ccc21 [Example 374, 1-Methyl-2-(6-trifluoromethyl-benzothiazol-2-ylamino)-1H-benzoimidazole-5-carboxylic acid (3-morpholin-4-yl-3-oxo-propyl)-amide] |  | 34.2 |
| Cn1c(Nc2nc3ccc(OC(F)(F)F)cc3s2)nc2cc(C(=O)NCCOCCC#N)ccc21 [Example 265, 1-Methyl-2-(6-trifluoromethoxy-benzothiazol-2-ylamino)-1H-benzoimidazole-5-carboxylic acid [2-(2-cyano-ethoxy)-ethyl]-amide] | 55 |  |
| CN1CCN(CCCNC(=O)c2ccc3c(c2)nc(Nc2nc4ccc(C(F)(F)F)cc4s2)n3C)CC1 [Example 357, 1-Methyl-2-(6-trifluoromethyl-benzothiazol-2-ylamino)-1H-benzoimidazole-5-carboxylic acid [3-(4-methyl-piperazin-1-yl)-propyl]-amide] |  | 22 |
| C[C@H](O)CNC(=O)c1ccc2c(c1)nc(Nc1nc3ccc(OC(F)(F)F)cc3s1)n2C [Example 50, 1-Methyl-2-(6-trifluoromethoxy-benzothiazol-2-ylamino)-1H-benzoimidazole-5-carboxylic acid ((S)-2-hydroxy-propyl)-amide] | 11.1 |  |
| CN1CCN(C(=O)CNC(=O)c2ccc3c(c2)nc(Nc2nc4ccc(OC(F)(F)F)cc4s2)n3C)CC1 [Example 137, 1-Methyl-2-(6-trifluoromethoxy-benzothiazol-2-ylamino)-1H-benzimidazole-5-carboxylic acid [2-(4-methyl-piperazin-1-yl)-2-oxo-ethyl]-amide] | 6 |  |
| CNC(=O)CNC(=O)c1ccc2c(c1)nc(Nc1nc3ccc(C(F)(F)F)cc3s1)n2C [Example 381, 1-Methyl-2-(6-trifluoromethyl-benzothiazol-2-ylamino)-1H-benzoimidazole-5-carboxylic acid methylcarbamoylmethyl-amide] |  | 28.2 |
| Cn1c(Nc2nc3ccc(Cl)cc3s2)nc2cc(C(=O)NCCF)ccc21 [Example 209, 2-(6-Chloro-benzothiazol-2-ylamino)-1-methyl-1H-benzoimidazole-5-carboxylic acid (2-fluoro-ethyl)-amide] |  | 14.2 |
| CCNC(=O)c1ccc2c(c1)nc(Nc1nc3ccc(C(F)(F)F)cc3s1)n2CC [Example 181, 1-Ethyl-2-(6-trifluoromethyl-benzothiazol-2-ylamino)-1H-benzoimidazole-5-carboxylic acid ethylamide] | 23 |  |
| COCCn1c(Nc2nc3ccc(Cl)cc3s2)nc2cc(C(=O)NCC(=O)N(C)C)ccc21 [Example 366, 2-(6-Chloro-benzothiazol-2-ylamino)-1-(2-methoxy-ethyl)-1H-benzoimidazole-5-carboxylic acid dimethylcarbamoylmethyl-amide] | 18.8 |  |
| Cn1c(Nc2nc3ccc(OC(F)(F)F)cc3s2)nc2cc(C(=O)NCCC3CCOCC3)ccc21 [Example 264, 1-Methyl-2-(6-trifluoromethoxy-benzothiazol-2-ylamino)-1H-benzoimidazole-5-carboxylic acid [2-(tetrahydro-pyran-4-yl)-ethyl]-amide] | 22.9 |  |
| CCOCCNC(=O)c1ccc2c(c1)nc(Nc1nc3ccc(Cl)cc3s1)n2C [Example 89, 2-(6-Chloro-benzothiazol-2-ylamino)-1-methyl-1H-benzoimidazole-5-carboxylic acid (2-ethoxy-ethyl)-amide] | 23.7 |  |
| CN1CCN(CCNC(=O)c2ccc3c(c2)nc(Nc2nc4ccc(Cl)cc4s2)n3C)CC1 [Example 338, 2-(6-Chloro-benzothiazol-2-ylamino)-1-methyl-1H-benzoimidazole-5-carboxylic acid [2-(4-methyl-piperazin-1-yl)-ethyl]-amide] |  | 13.6 |
